Measured values reported in article PMC5429621 (Scientific Reports, 2017).

Key:
[1] = target: T1, P2X7 73–79 deletion mutant (hP2X7-2Nβ background) (Homo sapiens, UniProt Q99572, DEL73-79/I21V/M24R/N16P/N25R/Q22R/R20V/S23N/T19I/Y26L); test: two-electrode voltage clamp, Xenopus oocytes; assay type: cell-based
T1 construct: expressed in transfected cells; host or cells: Xenopus laevis oocytes (cRNA injected)
T1 sequence (Q99572 with tags, fused parts or gaps N16P/T19I/R20V/I21V/Q22R/S23N/M24R/N25R/Y26L/DEL73-79): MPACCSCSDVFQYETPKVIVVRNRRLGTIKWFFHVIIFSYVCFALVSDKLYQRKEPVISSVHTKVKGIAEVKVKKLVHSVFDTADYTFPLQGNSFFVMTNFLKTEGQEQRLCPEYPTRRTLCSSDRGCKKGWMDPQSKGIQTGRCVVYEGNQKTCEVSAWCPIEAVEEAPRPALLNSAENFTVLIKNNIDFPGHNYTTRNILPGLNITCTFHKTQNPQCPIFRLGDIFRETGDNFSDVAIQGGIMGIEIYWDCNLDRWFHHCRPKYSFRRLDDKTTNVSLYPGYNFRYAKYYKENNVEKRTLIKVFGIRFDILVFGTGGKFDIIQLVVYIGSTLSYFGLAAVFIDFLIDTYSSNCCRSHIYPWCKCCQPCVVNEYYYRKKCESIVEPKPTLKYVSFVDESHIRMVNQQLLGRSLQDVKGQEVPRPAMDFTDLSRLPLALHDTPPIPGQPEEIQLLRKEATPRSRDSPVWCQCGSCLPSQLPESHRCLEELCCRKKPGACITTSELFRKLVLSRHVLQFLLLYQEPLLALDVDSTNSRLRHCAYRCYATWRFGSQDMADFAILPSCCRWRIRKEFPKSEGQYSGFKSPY

P2X7 receptor (P2X7R) = settings: read-out: ATP EC50, physiological concentrations of calcium and magnesium; cited from earlier work

Nc1ncnc2c1ncn2[C@@H]1O[C@H](COP(=O)(O)OP(=O)(O)OP(=O)(O)O)[C@@H](O)[C@H]1O [ATP]
increase in ATP sensitivity ([1]; 73–79 del, relative to P2X7-2Nβ): 2–3 fold
Peak amplitude ([1]; 73–79 delete, maximal ATP): 2.05 ± 0.23 μA
EC50 (P2X7 receptor (P2X7R)): 300 to 1000 µM
